Source: ChEMBL document CHEMBL1201862, “PubChem BioAssay data set” (2004)
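Cultured in 96-well plates, cells were exposed to test compound for 48 hours across five concentrations. GI50 is the concentration that inhibits growth by half.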 The source made the active and inactive calls. Cut-off read from the data, not from the text of the source: active = GI50 up to about 1.1 µM and inactive = higher.

What was measured:
Test in all cases: NCI anticancer screen, dose series, 48 h
CAKI-1 = tested on: CAKI-1
UO-31 = tested on: UO-31
MOLT-4 = tested on: MOLT-4
MDA-MB-231 = tested on: MDA-MB-231
SK-MEL-2 = tested on: SK-MEL-2
SK-MEL-5 = tested on: SK-MEL-5
SNB-19 = tested on: SNB-19
HL-60 = tested on: HL-60
NCI/ADR-RES = tested on: NCI/ADR-RES
K562 = tested on: K562
Hs-578T = tested on: Hs-578T
SNB-75 = tested on: SNB-75
HCC 2998 = tested on: HCC 2998
SK-MEL-28 = tested on: SK-MEL-28
RXF 393 = tested on: RXF 393
MCF7 = tested on: MCF7
DU-145 = tested on: DU-145
SF-539 = tested on: SF-539
NCI-H460 = tested on: NCI-H460
PC-3 = tested on: PC-3

Row | Structure (SMILES) | GI50 (CAKI-1) | GI50 (UO-31) | GI50 (MOLT-4) | GI50 (MDA-MB-231) | GI50 (SK-MEL-2) | GI50 (SK-MEL-5) | GI50 (SNB-19) | GI50 (HL-60) | GI50 (NCI/ADR-RES) | GI50 (K562) | GI50 (Hs-578T) | GI50 (SNB-75) | GI50 (HCC 2998) | GI50 (SK-MEL-28) | GI50 (RXF 393) | GI50 (MCF7) | GI50 (DU-145) | GI50 (SF-539) | GI50 (NCI-H460) | GI50 (PC-3)
1 | Cc1cc(NC(=O)NC(=O)c2ccccc2NC(=O)C(C)N)ccc1Oc1ncc(Br)cn1 (stereo not given) | 0.0173 µM (active) | 0.216 µM (active) | 0.23 µM (active) | 0.143 µM (active) | 0.153 µM (active) | 0.0457 µM (active) | 0.248 µM (active) | 0.0131 µM (active) | 0.0208 µM (active) | 0.136 µM (active) | 0.0159 µM (active) | < 0.01 µM (active) | 0.298 µM (active) | 0.184 µM (active) | 0.0111 µM (active) | 0.152 µM (active) | 0.136 µM (active) | 0.0158 µM (active) | 0.179 µM (active) | 0.0391 µM (active)
2 | C=C1C[C@H](O)[C@H](Br)C(C)(C)C12CCC(C)(Cl)C(Br)C2 (stereo not given in full) | 5.09 µM (inactive) | 7.93 µM (inactive) | 0.451 µM (active) | 2.72 µM (inactive) | 1 µM (active) | 3.04 µM (inactive) | 1.23 µM (inactive) | 0.508 µM (active) | 4.58 µM (inactive) | 2.44 µM (inactive) | 5.2 µM (inactive) | 1.94 µM (inactive) | 5.52 µM (inactive) | 7.74 µM (inactive) | 1.95 µM (inactive) | 3.25 µM (inactive) | 4.84 µM (inactive) | 15.6 µM (inactive) | 1.69 µM (inactive) | 0.153 µM (active)
3 | Cc1nc2cccc(F)c2c(=O)n1-c1nnc(C2CC2)s1 | > 10 µM (inactive) | > 10 µM (inactive) | > 10 µM (inactive) | > 10 µM (inactive) | > 10 µM (inactive) | > 10 µM (inactive) | > 10 µM (inactive) | > 10 µM (inactive) | > 10 µM (inactive) | > 10 µM (inactive) | > 10 µM (inactive) | > 10 µM (inactive) | > 10 µM (inactive) | > 10 µM (inactive) | > 10 µM (inactive) | > 10 µM (inactive) | > 10 µM (inactive) | > 10 µM (inactive) | > 10 µM (inactive) | > 10 µM (inactive)
4 | C/C=C(\N=C=S)C(=O)OC1C(COC(C)=O)OC([C@]2(O)CC(=O)C(N)=C(C(=O)O)C2=O)C(O)C1OC1CC(OC)C(O)([C@@H](C)OC(=O)[C@@H](C)CC)C(C)O1 (stereo not given in full) | 19.6 µM (inactive) | 18.2 µM (inactive) | 2.44 µM (inactive) | 19.6 µM (inactive) | 9.33 µM (inactive) | 14.8 µM (inactive) | 11.9 µM (inactive) | 2.12 µM (inactive) | 94.4 µM (inactive) | 2.11 µM (inactive) | 7.82 µM (inactive) | 16.9 µM (inactive) | 18.9 µM (inactive) | 7.66 µM (inactive) | 5.35 µM (inactive) | 14.5 µM (inactive) | 18.9 µM (inactive) | 7.53 µM (inactive) | 20.7 µM (inactive) | 15.7 µM (inactive)
5 | CCN(CC)CCOC(=O)CCN1CC2CCC(CC2)C1 | > 100 µM (inactive) | > 100 µM (inactive) | > 100 µM (inactive) | > 100 µM (inactive) | > 100 µM (inactive) | > 100 µM (inactive) | > 100 µM (inactive) | > 100 µM (inactive) | > 100 µM (inactive) | > 100 µM (inactive) | > 100 µM (inactive) | 78.2 µM (inactive) | > 100 µM (inactive) | > 100 µM (inactive) | > 100 µM (inactive) | > 100 µM (inactive) | > 100 µM (inactive) | > 100 µM (inactive) | > 100 µM (inactive) | > 100 µM (inactive)
6 | CC1(C)C/C=C\CCC(O)C(O)CCC(C)(C)C1=O (stereo not given) | > 100 µM (inactive) | > 100 µM (inactive) | > 100 µM (inactive) | > 100 µM (inactive) | > 100 µM (inactive) | > 100 µM (inactive) | > 100 µM (inactive) | > 100 µM (inactive) | > 100 µM (inactive) | > 100 µM (inactive) | > 100 µM (inactive) | > 100 µM (inactive) | 17.1 µM (inactive) | > 100 µM (inactive) | > 100 µM (inactive) | > 100 µM (inactive) | > 100 µM (inactive) | > 100 µM (inactive) | > 100 µM (inactive) | > 100 µM (inactive)
7 | CCc1ccc(/C=C/C(=O)C2CN(CC)CCC2(O)/C=C/c2ccc(CC)cc2)cc1 (stereo not given) | 6.59 µM (inactive) | 3.2 µM (inactive) | 2.2 µM (inactive) | 2.23 µM (inactive) | 7.18 µM (inactive) | 4.36 µM (inactive) | 7.62 µM (inactive) | 2.77 µM (inactive) | 3.47 µM (inactive) | 2.52 µM (inactive) | 2.83 µM (inactive) | 9.33 µM (inactive) | 2.22 µM (inactive) | 1.55 µM (inactive) | 3.18 µM (inactive) | 2.42 µM (inactive) | 9.55 µM (inactive) | 2.31 µM (inactive) | 2.22 µM (inactive) | 3.55 µM (inactive)
8 | N#Cc1cccc(N2C(=O)C3C4C=CC(C3C2=O)C2C(=O)N(c3cccc(C#N)c3)C(=O)C42)c1 (stereo not given) | 55.5 µM (inactive) | 49.1 µM (inactive) | 41.8 µM (inactive) | > 51.5 µM (inactive) | 22.8 µM (inactive) | > 63.1 µM (inactive) | 31.2 µM (inactive) | > 80.9 µM (inactive) | > 100 µM (inactive) | 46.9 µM (inactive) | 40 µM (inactive) | 6.12 µM (inactive) | > 56.2 µM (inactive) | > 63.1 µM (inactive) | 10.2 µM (inactive) | > 100 µM (inactive) | > 100 µM (inactive) | 29.3 µM (inactive) | > 63.1 µM (inactive) | > 100 µM (inactive)
9 | CC(C)=CC[C@]12CCN[C@H]1N(S(=O)(=O)c1ccccc1)c1ccccc12 | 20.1 µM (inactive) | 13.8 µM (inactive) | 21.1 µM (inactive) | 19 µM (inactive) | 14.2 µM (inactive) | 14.9 µM (inactive) | 21.5 µM (inactive) | 17.8 µM (inactive) | 14.8 µM (inactive) | 16.7 µM (inactive) | 20.5 µM (inactive) | 17.1 µM (inactive) | 16.7 µM (inactive) | 16.4 µM (inactive) | 13.5 µM (inactive) | 18.2 µM (inactive) | > 100 µM (inactive) | 20.3 µM (inactive) | 14.5 µM (inactive) | 13.5 µM (inactive)
10 | Oc1cc(-c2ccc(F)cc2)nc2ncc(Cl)cc12 | 33 µM (inactive) | > 85.9 µM (inactive) | 20.7 µM (inactive) | > 65.5 µM (inactive) | 26.2 µM (inactive) | 6.93 µM (inactive) | 38 µM (inactive) | 3.38 µM (inactive) | 18 µM (inactive) | 4.21 µM (inactive) | 19.9 µM (inactive) | 11.7 µM (inactive) | 58.6 µM (inactive) | 58.5 µM (inactive) | 17.2 µM (inactive) | 12.3 µM (inactive) | 21.4 µM (inactive) | 27.6 µM (inactive) | 15.4 µM (inactive) | 20.2 µM (inactive)
